Measurements: BindingDB's records for PubMed 40104800 (Jinan University)

Target: Eukaryotic elongation factor 2 kinase (mouse)
Assay: Inhibition of eEF2K in mouse HT-22 cells preincubated for 20 mins followed by [33P]-ATP addition measured after 120 mins by radiometric Hotspot kinase assay

Compound: C=C(c1[nH]c2ccccc2c1CN1C/C(=C/C)[C@@H]2CC(=O)c3[nH]c4ccccc4c3C[C@H]1C2C(=O)OC)[C@H]1CCN(C)C/C1=C\C (stereo partly specified)
- IC50: 136 µM
